From BindingDB's records for doi:10.1016/j.bmcl.2009.11.060 (Glaxosmithkline, 2010) come the findings set out here.

pIC50: −log10 of the molar value.

The experiment is described as follows: Inhibition of GSK3-beta phosphorylation in human BT474 cells.
`Cc1n[nH]c2ncc(-c3cc(OC[C@@H](N)Cc4c[nH]c5ccccc45)cnc3-c3ccoc3)nc12` [(S)-1-(6-(furan-3-yl)-5-(3-methyl-1H-pyrazolo[4,3-b]pyrazin-5-yl)pyridin-3-yloxy)-3-(1H-indol-3-yl)propan-2-amine]: the pIC50 was 6.80.
In the case of `Cc1n[nH]c2cnc(-c3cc(OC[C@@H](N)Cc4c[nH]c5ccccc45)cnc3-c3ccoc3)cc12` [(S)-1-(6-(furan-3-yl)-5-(3-methyl-1H-pyrazolo[3,4-c]pyridin-5-yl)pyridin-3-yloxy)-3-(1H-indol-3-yl)propan-2-amine] it was 7.19.
Under `Cc1n[nH]c2ccc(-c3cc(OC[C@@H](N)Cc4c[nH]c5ccccc45)cnc3-c3ccoc3)nc12` [(S)-1-(6-(furan-3-yl)-5-(3-methyl-1H-pyrazolo[4,3-b]pyridin-5-yl)pyridin-3-yloxy)-3-(1H-indol-3-yl)propan-2-amine] stands 5.41; under `Cc1n[nH]c2ncc(-c3cc(OC[C@@H](N)Cc4c[nH]c5ccccc45)cnc3-c3ccoc3)cc12` [(S)-1-(6-(furan-3-yl)-5-(3-methyl-1H-pyrazolo[3,4-b]pyridin-5-yl)pyridin-3-yloxy)-3-(1H-indol-3-yl)propan-2-amine], 6.59.

In general, pIC50 refers to the IC50 on a negative log10 scale, so that one unit is a factor of ten.
